Data taken from patent US9867841B2, “Compounds, compositions and methods using E-selectin antagonists for mobilization of hematopoietic cells” (GLYCOMIMETICS, INC., priority 2012, dated 2018).

System: WBC, lymphocytes, monocytes, eosinophils, and neutrophils in circulation
Assay: Mobilization of blood cells in CD-1 mice (Example 5, FIG. 5)
Type: in vivo
Details: AMD3100 dosed at 3 mg/kg
Description: Blood was collected from the animals at 2, 3, and 6 hours post dosing and analyzed for levels of total white blood cells (WBC) (Figure SA), neutrophils (FIG. 5B), eosinophils (FIG. 5C), lymphocytes (FIG. 5D), monocytes (FIG. 5E).
Blood was collected from the animals at 2, 3, and 6 hours post dosing and analyzed for levels of blood cells (WBC, lymphocytes, monocytes, eosinophils, and neutrophils) by standard CBC differential analyses methods.

c1cc(CN2CCCNCCNCCCNCC2)ccc1CN1CCCNCCNCCCNCC1 [AMD3100]
level and timing of WBC mobilization compared with Compound 25: generally equivalent to that elicited by Compound 25
